25 compounds from ChEMBL document CHEMBL1153328, “5-Aminomethylbenzimidazoles as potent ITK antagonists” (Bioorg Med Chem Lett, 2009) can be followed below.

Molecules are shown by their SMILES. In brackets after ≈: the same amount, converted by molar mass. Bounds are passed on as bounds.

Data set [1] addresses T1, Tyrosine-protein kinase ITK/TSK (Homo sapiens, UniProt Q08881).
T1 sequence (Q08881 whole entry): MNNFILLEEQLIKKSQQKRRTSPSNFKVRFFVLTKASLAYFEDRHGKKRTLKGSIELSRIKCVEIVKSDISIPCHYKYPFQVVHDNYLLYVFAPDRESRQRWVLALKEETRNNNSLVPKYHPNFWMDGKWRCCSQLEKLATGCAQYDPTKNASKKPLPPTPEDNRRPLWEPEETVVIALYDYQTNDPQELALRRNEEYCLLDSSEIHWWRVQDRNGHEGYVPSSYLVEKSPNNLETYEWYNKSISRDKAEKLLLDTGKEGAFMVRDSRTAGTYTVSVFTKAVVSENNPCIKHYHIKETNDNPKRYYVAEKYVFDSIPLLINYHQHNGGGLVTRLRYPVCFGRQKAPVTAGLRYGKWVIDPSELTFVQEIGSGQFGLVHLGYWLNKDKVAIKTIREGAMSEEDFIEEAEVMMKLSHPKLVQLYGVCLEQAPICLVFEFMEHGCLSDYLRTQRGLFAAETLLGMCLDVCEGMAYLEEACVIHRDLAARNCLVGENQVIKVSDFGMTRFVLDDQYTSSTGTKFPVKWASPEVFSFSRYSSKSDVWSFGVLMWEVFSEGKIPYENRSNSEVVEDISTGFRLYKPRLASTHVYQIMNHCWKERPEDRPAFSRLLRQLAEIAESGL
Description: Inhibition of ITK in presence of 1 mM ATP.

A further data set concerns T-cell. Briefly: Inhibition of anti-CD3 and anti-CD28 monoclonal antibody-stimulated IL2 secretion in human CD4+ T cells. The format is functional, cell-based.
For data set [2], the target named is T1, Tyrosine-protein kinase ITK/TSK. Briefly: Binding affinity to ITK by DELFIA-based molecular assay.
A further data set has as its target Insulin receptor (Homo sapiens, UniProt P06213). Briefly: Inhibition of IRK.
For data set [3], the target named is T1, Tyrosine-protein kinase ITK/TSK. Briefly: Antagonist activity at human ITK expressed in BTK deficient DT40 cells assessed as inhibition of B cell receptor-stimulated calcium influx. The data set is classed as functional, cell-based.
The test system of a further data set is Blood. Briefly: Inhibition of staphylococcal entertoxin B-stimulated IL2 secretion in human whole blood. The data set is classed as functional, tissue-based.
A short description of data set [4]: Solubility at pH 7. The data set is classed as physicochemical. As to conditions: buffer.
Data set [5] can be described thus: Protein binding in plasma by dialysis method. The data set is classed as ADME, cell-free. As to conditions: read-out: PPB (converted).
Data set [6] is described as follows: Plasma clearance in Sprague-Dawley rat at 1 mg/kg, iv. The data set is classed as ADME, organism-based. The arrangement: dose 1 mg/kg, route intravenous.
Data set [7] in a line: Tmax in Sprague-Dawley rat at 10 mg/kg, po. The data set is classed as ADME, organism-based. On the set-up: dose 10 mg/kg, route oral. As to conditions: in vivo.
Data set [8] is described as follows: AUC (0 to infinity) in Sprague-Dawley rat at 1 mg/kg, iv. The arrangement: time infinity, dose 1 mg/kg, route intravenous. The data set is classed as ADME, organism-based. As to conditions: plasma.
A short description of data set [9]: Cmax in Sprague-Dawley rat at 10 mg/kg, po. The data set is classed as ADME, organism-based. On the set-up: dose 10 mg/kg, route oral. As to conditions: in vivo.
The nature of data set [10]: Terminal plasma concentration in BALB/c mouse at 1.5 mg/kg, po after 8 hrs. On the set-up: dose 1.5 mg/kg, route oral. The format is ADME, organism-based. As to conditions: read-out: Cp(T).
Data set [11] in a line: Terminal plasma concentration in BALB/c mouse at 15 mg/kg, po after 8 hrs. On the set-up: dose 15 mg/kg, route oral. As to conditions: read-out: Cp(T). The data set is classed as ADME, organism-based.
Data set [12] is described as follows: Terminal half life in Sprague-Dawley rat at 1 mg/kg, iv. The data set is classed as ADME, organism-based. The arrangement: dose 1 mg/kg, route intravenous. Conditions: in vivo, read-out: beta t1/2 (converted).
Data set [13] can be described thus: Oral bioavailability in Sprague-Dawley rat at 10 mg/kg. The data set is classed as ADME, organism-based. As to conditions: in vivo.
The test system of data set [14] is Mus musculus. Briefly: Inhibition of anti-CD3-stimulated IL2 production in po dosed BALB/c mouse administered 5 hrs before anti-CD3 challenge measured after 3 hrs. The format is functional, organism-based.
The test system of data set [15] is Mus musculus. Briefly: Inhibition of anti-CD3-stimulated IL4 production in po dosed BALB/c mouse administered 5 hrs before anti-CD3 challenge measured after 3 hrs. The format is functional, organism-based.
The nature of data set [16]: AUC (0 to infinity) in Sprague-Dawley rat at 10 mg/kg, po. The format is ADME, organism-based. On the set-up: time infinity, dose 10 mg/kg, route oral. As to conditions: plasma.
Data set [17] can be described thus: Terminal plasma concentration in BALB/c mouse at 5 mg/kg, po after 8 hrs. The data set is classed as ADME, organism-based. As to conditions: read-out: Cp(T). On the set-up: dose 5 mg/kg, route oral.
Data set [18] in a line: Volume of distribution at steady state in Sprague-Dawley rat at 1 mg/kg, iv. The format is ADME, organism-based. The arrangement: dose 1 mg/kg, route intravenous. Conditions: in vivo, read-out: Vdss.

Sequence of Insulin receptor (P06213 28-758 limits assumed): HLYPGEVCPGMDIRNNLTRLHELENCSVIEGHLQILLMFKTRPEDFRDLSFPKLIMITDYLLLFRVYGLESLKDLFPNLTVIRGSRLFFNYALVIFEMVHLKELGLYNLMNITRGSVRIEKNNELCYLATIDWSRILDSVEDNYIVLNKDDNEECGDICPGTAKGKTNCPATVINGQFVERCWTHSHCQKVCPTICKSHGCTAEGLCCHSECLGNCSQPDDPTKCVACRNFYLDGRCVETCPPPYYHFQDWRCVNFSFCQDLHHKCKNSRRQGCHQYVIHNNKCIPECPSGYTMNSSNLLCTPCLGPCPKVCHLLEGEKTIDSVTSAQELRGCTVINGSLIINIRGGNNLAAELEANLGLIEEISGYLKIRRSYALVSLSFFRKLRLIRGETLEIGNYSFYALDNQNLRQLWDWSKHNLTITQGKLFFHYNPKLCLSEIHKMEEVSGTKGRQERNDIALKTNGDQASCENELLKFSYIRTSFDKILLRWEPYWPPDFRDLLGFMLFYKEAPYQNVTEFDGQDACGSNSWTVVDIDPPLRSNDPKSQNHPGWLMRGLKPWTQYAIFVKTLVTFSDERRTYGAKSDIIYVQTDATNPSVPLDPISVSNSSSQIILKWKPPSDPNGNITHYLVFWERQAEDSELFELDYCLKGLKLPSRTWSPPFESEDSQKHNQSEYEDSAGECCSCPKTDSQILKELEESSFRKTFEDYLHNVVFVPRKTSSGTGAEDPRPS
Sequence of Insulin receptor (P06213 763-1382 limits assumed): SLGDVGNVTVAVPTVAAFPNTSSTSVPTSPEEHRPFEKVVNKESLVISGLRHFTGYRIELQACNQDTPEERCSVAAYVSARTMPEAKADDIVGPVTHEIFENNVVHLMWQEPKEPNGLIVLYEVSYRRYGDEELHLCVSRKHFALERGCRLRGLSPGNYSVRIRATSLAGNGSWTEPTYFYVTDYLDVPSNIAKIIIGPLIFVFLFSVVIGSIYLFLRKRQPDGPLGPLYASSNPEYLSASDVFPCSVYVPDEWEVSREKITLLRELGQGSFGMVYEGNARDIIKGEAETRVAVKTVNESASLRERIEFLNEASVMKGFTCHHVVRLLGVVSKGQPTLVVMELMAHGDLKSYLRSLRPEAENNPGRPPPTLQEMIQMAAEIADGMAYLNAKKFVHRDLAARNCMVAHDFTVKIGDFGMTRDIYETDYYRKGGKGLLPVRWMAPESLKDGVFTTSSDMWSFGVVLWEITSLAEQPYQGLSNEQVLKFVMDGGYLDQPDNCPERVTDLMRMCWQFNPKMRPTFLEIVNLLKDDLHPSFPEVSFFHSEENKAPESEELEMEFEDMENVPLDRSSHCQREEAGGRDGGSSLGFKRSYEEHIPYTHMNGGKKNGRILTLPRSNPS

For `C[C@@H](NCc1ccc2c(c1)nc(NC(=O)c1ccc(-c3cn[nH]c3)s1)n2CC(C)(C)O)C(C)(C)C`, the IC50 turned out to be 20 nM in data set [1]; 50 nM in the data set on T-cell; 1 nM in data set [2]; 93 nM against Insulin receptor; 3 nM in data set [3].
As to `C[C@H](N(C)Cc1ccc2c(c1)[nH]/c(=N\C(=O)c1ccc(-c3cn[nH]c3)s1)n2CC(C)(C)O)C(C)(C)C`, the half-inhibitory concentration (IC50) in data set [1] worked out at 8 nM; in the data set on T-cell, 18 nM; in data set [2] it was 1 nM; on Insulin receptor, 400 nM; in the data set with Blood it was 690 nM; in data set [3], 3 nM.
As for `CC(C)(O)Cn1/c(=N/C(=O)c2ccc(-c3cn[nH]c3)s2)[nH]c2cc(CN3CCCCC3CO)ccc21` (centres undefined), the IC50 in data set [1] is 660 nM; in data set [2], 3 nM; at Insulin receptor, 1100 nM; in data set [3], 58 nM.
Consider `CC(C)CNCc1ccc2c(c1)nc(NC(=O)c1ccc(-c3cn[nH]c3)s1)n2CC(C)(C)O`, for which the results for the IC50 in the data set on T-cell and against Insulin receptor were 86 nM and 360 nM, respectively.
As for `CC(C)(O)Cn1/c(=N/C(=O)c2ccc(-c3cn[nH]c3)s2)[nH]c2cc(CN3CCOCC3)ccc21`, the 50% inhibitory concentration (IC50) in data set [1] was 220 nM; in the data set on T-cell it was 230 nM; in data set [2], 2 nM; against Insulin receptor it was 320 nM; in data set [3], 13 nM.
As for `CNCc1ccc2c(c1)[nH]/c(=N\C(=O)c1ccc(-c3cn[nH]c3)s1)n2CC(C)(C)O`, the half-inhibitory concentration (IC50) on Insulin receptor was found to be 500 nM.
As to `CC(C)(O)Cn1/c(=N/C(=O)c2ccc(-c3cn[nH]c3)s2)[nH]c2cc(CNCc3ccccc3)ccc21`, the half-maximal inhibitory concentration (IC50) was 37 nM in the data set with T-cell and 480 nM at Insulin receptor.
On to `Cc1ncc(-c2ccc(C(=O)Nc3nc4cc(CNC5CCCCC5)ccc4n3CC(C)(C)O)s2)o1`, for which the IC50 worked out at 940 nM in data set [1]; 180 nM in the data set with T-cell; 8 nM in [2]; 700 nM against Insulin receptor; 210 nM in data set [3].
Regarding `CC1COCC(C)N1Cc1ccc2c(c1)[nH]/c(=N\C(=O)c1ccc(-c3cn[nH]c3)s1)n2CC(C)(C)O` (centres undefined), the IC50 was found to be 98 nM in data set [1]; 46 nM in the data set on T-cell; 1 nM in data set [2]; 320 nM on Insulin receptor; 3 nM in data set [3].
At Insulin receptor, `CN(Cc1ccc2c(c1)[nH]/c(=N\C(=O)c1ccc(-c3cn[nH]c3)s1)n2CC(C)(C)O)c1ccccc1` registered a concentration for half-maximal inhibition (IC50) of 5500 nM.
With `CN(Cc1cccnc1)Cc1ccc2c(c1)[nH]/c(=N\C(=O)c1ccc(-c3cn[nH]c3)s1)n2CC(C)(C)O`, the results for the IC50 with T-cell and at Insulin receptor were 91 nM and 310 nM, respectively.
In the case of `CCC(C)NCc1ccc2c(c1)nc(NC(=O)c1ccc(-c3cn[nH]c3)s1)n2CC(C)(C)O` (centres undefined), the IC50 was found to be 390 nM in data set [1]; 23 nM in the data set on T-cell; 2 nM in data set [2]; 600 nM against Insulin receptor; 25 nM in [3].
Taken in the same sequence, the figures for `C[C@@H](N(C)Cc1ccc2c(c1)nc(NC(=O)c1ccc(-c3cn[nH]c3)s1)n2CC(C)(C)O)C(C)(C)C` were 20 nM, 64 nM, 1 nM, 230 nM and 2 nM.
Taken in the same sequence, the figures for `CC(C)(O)Cn1c(NC(=O)c2ccc(-c3cn[nH]c3)s2)nc2cc(CNc3ccccc3)ccc21` were 75 nM, 150 nM, 2 nM, 1700 nM and 21 nM.
In the case of `CN(Cc1ccc2c(c1)nc(NC(=O)c1ccc(-c3cn[nH]c3)s1)n2CC(C)(C)O)C1CCCCC1`, the half-inhibitory concentration (IC50) in data set [1] was 160 nM; in the data set on T-cell, 59 nM; in data set [2] it was 2 nM; on Insulin receptor, 480 nM; in data set [3], 13 nM.
Regarding `Cc1ncc(-c2ccc(C(=O)Nc3nc4cc(N(C)C(=O)c5ccccc5)ccc4n3CC(C)(C)O)s2)o1`, the IC50 in data set [1] was determined as 200 nM; in the data set with T-cell, 440 nM; in [2], 3 nM; at Insulin receptor, 940 nM; in the data set with Blood it was 10000 nM; in [3] it was 110 nM. Besides, in data set [4], the solubility turned out to be 2 µg/mL (≈ 3.78 µM). For the same compound, the fraction unbound in data set [5] is 0.013.
Consider `Cc1ncc(-c2ccc(C(=O)/N=c3\[nH]c4cc(CN(C)C5CCCCC5)ccc4n3CC(C)(C)O)s2)o1`, for which the IC50 in the data set with T-cell was 230 nM; on Insulin receptor it was 350 nM.
As to `CC(C)(O)Cn1/c(=N/C(=O)c2ccc(-c3cn[nH]c3)s2)[nH]c2cc(CN3CCC(O)C3)ccc21` (centres undefined), the IC50 in [1] is 310 nM; in data set [2] it was 2 nM; at Insulin receptor, 420 nM; in data set [3], 130 nM.
As to `CC(C)(O)Cn1c(NC(=O)c2ccc(-c3cn[nH]c3)s2)nc2cc(CNC3CCCCC3)ccc21`, the half-inhibitory concentration (IC50) in data set [1] turned out to be 99 nM; in the data set with T-cell, 93 nM; in data set [2], 1 nM; at Insulin receptor it was 400 nM; in [3] it was 20 nM.
In the case of `CN(C)CCN(C)Cc1ccc2c(c1)[nH]/c(=N\C(=O)c1ccc(-c3cn[nH]c3)s1)n2CC(C)(C)O`, the results for the IC50 in the data set on T-cell and against Insulin receptor were 150 nM and 390 nM, respectively.
In the data set with T-cell, `Cc1ncc(-c2ccc(C(=O)/N=c3\[nH]c4cc(CNc5ccccc5)ccc4n3CC(C)(C)O)s2)o1` came in with an IC50 of 460 nM.
Still for that read-out and setting: the same measure for `CN(C)Cc1ccc2c(c1)[nH]/c(=N\C(=O)c1ccc(-c3cn[nH]c3)s1)n2CC(C)(C)O`: 130 nM.
Consider `CC(C)(O)Cn1/c(=N/C(=O)c2ccc(-c3cn[nH]c3)s2)[nH]c2cc(CN3CCCCC3)ccc21`, for which the IC50 is 250 nM in [1]; 120 nM with T-cell; 3 nM in [2]; 550 nM on Insulin receptor; 11 nM in [3].
`CC(C)(O)Cn1c(NC(=O)c2ccc(-c3cn[nH]c3)s2)nc2cc(CN)ccc21`: the IC50 in [1] was 900 nM; in [2] it was 4 nM; at Insulin receptor it was 1200 nM; in data set [3], over 5000 nM.
As to `C[C@H](NCc1ccc2c(c1)[nH]/c(=N\C(=O)c1ccc(-c3cn[nH]c3)s1)n2CC(C)(C)O)C(C)(C)C`, the clearance in [6] stood at 53.1 mL/min/kg. Further, the time to peak (Tmax) in [7] was 1.2 h. Further, the concentration for half-maximal inhibition (IC50) in data set [1] was 13 nM; in the data set on T-cell, 20 nM; in data set [2] it was 1 nM; at Insulin receptor it was 160 nM; in the data set with Blood, 240 nM; in data set [3], 4 nM. Also, the AUC(0-inf) in [8] was determined as 314 ng·h/mL; in [16], 659 ng·h/mL. For the same compound, the peak concentration (Cmax) in data set [9] is 92 ng/mL. Moreover, the concentration at 8 h worked out at 100 nM in data set [10], 1300 nM in data set [11] and 400 nM in [17]. Also, the half-life in [12] is 2.5 h. The bioavailability in data set [13] was determined as 21%. The Activity result in the data set on Mus musculus [14] and in the data set on Mus musculus [15] was “Dose-dependent effect” each time. For the same compound, the Vd in [18] was found to be 11.6 L/kg.
